Experimental data: ChEMBL document CHEMBL5375967 (J Med Chem, 2023)
Converted amounts (≈) assume the structure as drawn.

Columns and labels:
physchem [1] = details: octanol/water, pH 7.4
in vitro [2] = details: mouse, liver microsomes
in vitro [3] = details: rat, liver microsomes
in vivo [4] = details: C57BL/6, mouse, po, 10 mg/kg
in vitro [5] = details: human, liver microsomes
[6] = Inhibition of calcium ionophore A23187-stimulated LTB4 release in C57BL/6 mouse model at 10 mg/kg, po bid measured after 2 hrs; format: functional
in vivo [7] = details: C57BL/6, mouse, po, 10 mg/kg; remark: listed apart in the source
physchem [8] = details: buffer, pH 6.8
in vitro [9] = details: dog, MDCK
in vivo [10] = details: Sprague-Dawley, rat, iv, 1 mg/kg
in vivo [11] = details: Sprague-Dawley, rat, iv, 1 mg/kg; remark: listed apart in the source
physchem [12] = assay: physchem
in vivo [13] = details: Sprague-Dawley, rat, iv, 1 mg/kg; remark: listed apart in the source
in vivo [14] = details: Sprague-Dawley, rat, iv, 1 mg/kg; remark: listed apart in the source
[15] = target: T1, Voltage-gated inwardly rectifying potassium channel KCNH2 (Homo sapiens, UniProt Q12809)
T1 sequence (Q12809 whole entry): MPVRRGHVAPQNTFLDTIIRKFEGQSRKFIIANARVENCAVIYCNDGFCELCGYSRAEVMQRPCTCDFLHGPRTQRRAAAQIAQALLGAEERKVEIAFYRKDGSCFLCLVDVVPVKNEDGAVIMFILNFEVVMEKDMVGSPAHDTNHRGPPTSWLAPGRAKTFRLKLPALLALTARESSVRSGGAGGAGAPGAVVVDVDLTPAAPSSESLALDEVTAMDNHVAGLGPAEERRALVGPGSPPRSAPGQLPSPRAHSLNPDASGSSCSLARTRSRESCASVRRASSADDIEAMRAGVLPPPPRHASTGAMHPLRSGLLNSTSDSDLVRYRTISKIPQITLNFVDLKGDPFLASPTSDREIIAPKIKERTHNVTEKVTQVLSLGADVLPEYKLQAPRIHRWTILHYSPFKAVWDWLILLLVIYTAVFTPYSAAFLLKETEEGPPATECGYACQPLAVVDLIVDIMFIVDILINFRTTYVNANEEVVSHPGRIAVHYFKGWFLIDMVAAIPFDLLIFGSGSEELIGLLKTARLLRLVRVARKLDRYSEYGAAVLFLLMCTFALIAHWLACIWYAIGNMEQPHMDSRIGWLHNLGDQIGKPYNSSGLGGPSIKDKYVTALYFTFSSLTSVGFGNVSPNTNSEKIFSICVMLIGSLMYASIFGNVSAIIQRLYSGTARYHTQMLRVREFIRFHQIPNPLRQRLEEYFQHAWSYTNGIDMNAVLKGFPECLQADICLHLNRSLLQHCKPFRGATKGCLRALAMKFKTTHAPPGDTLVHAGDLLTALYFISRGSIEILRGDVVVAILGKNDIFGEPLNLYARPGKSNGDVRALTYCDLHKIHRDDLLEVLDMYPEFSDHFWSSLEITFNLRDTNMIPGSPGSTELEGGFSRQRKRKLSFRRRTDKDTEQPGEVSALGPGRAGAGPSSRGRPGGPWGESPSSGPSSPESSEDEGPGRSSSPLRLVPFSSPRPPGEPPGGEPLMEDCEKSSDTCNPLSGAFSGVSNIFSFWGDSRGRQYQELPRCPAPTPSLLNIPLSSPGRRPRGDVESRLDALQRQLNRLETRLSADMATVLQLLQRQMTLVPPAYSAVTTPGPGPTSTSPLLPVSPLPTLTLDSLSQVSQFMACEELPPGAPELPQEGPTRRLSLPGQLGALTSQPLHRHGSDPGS

in vivo [16] = details: Sprague-Dawley, rat, iv, 1 mg/kg; remark: listed apart in the source
in vivo [17] = details: Sprague-Dawley, rat, iv, 1 mg/kg; remark: listed apart in the source
[18] = target: T1, Voltage-gated inwardly rectifying potassium channel KCNH2; remark: listed apart in the source
in vivo [19] = details: Sprague-Dawley, rat, po, 3 mg/kg
[20] = target: T2, Leukotriene A-4 hydrolase (Homo sapiens, UniProt P09960); assay: Inhibition of LTA4H (unknown origin)
T2 sequence (P09960 whole entry): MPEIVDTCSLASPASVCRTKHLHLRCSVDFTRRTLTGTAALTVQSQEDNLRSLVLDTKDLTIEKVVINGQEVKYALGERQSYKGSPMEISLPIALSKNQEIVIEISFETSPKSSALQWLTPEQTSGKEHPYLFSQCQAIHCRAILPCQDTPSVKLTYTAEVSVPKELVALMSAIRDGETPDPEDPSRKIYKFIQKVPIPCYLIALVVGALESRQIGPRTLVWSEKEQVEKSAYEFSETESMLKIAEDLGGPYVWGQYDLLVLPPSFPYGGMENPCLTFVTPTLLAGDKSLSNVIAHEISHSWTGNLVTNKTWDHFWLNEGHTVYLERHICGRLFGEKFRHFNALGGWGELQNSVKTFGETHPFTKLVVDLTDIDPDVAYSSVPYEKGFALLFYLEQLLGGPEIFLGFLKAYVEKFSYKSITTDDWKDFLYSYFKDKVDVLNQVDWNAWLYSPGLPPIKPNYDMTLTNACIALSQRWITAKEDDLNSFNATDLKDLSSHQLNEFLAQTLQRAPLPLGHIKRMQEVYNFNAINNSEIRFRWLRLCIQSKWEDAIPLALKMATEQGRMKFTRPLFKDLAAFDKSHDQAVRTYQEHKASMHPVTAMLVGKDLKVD

[21] = target: T2, Leukotriene A-4 hydrolase; assay: Inhibition of LTA4H in human blood assessed as LTB4 production; format: tissue-based
[22] = target: T1, Voltage-gated inwardly rectifying potassium channel KCNH2; remark: listed apart in the source

Row | Compound | logD (physchem [1]) | microsomal CLint (in vitro [2]) [µL/min/mg] | microsomal CLint (in vitro [3]) [µL/min/mg] | microsomal CLint (in vitro [5]) [µL/min/mg] | solubility (physchem [8]) [µM] | Papp A→B (in vitro [9]) [×10⁻⁶ cm/s] | concentration at 24 h (in vivo [10]) [nM] | MRT (in vivo [11]) [h] | clearance (in vivo [13]) [mL/min/kg] | bioavailability (in vivo [14]) [%] | IC50 [15] [µM] | Vd (in vivo [16]) [L/kg] | Cmax (in vivo [17]) [nM] | IC50 [18] [µM] | AUC(0-inf) (in vivo [19]) [µM·h] | further results
1 | N[C@@H](CC(=O)O)Cn1nnc(-c2ccc(Oc3ncc(Cl)cc3F)cc2)n1 | 0.5 | < 25 | < 25 | < 25 | 620 (≈ 244 µg/mL) | 1.8 | – | – | – | – | – | – | – | – | – | concentration at 24 h (in vivo [4]; in vivo): 184 nM; inhibition in vivo at 10 mg/kg [6]: 97%; concentration at 2 h (in vivo [7]; in vivo): 1290 nM
2 | N[C@@H](CCO)Cn1nnc(-c2ccc(Oc3ncc(Cl)cc3F)cc2)n1 | – | – | – | – | – | 23 | – | – | – | – | – | – | – | – | – | –
3 | N[C@@H](CO)Cn1nnc(-c2ccc(Oc3ncc(Cl)cc3F)cc2)n1 | 2.3 | < 25 | < 25 | < 25 | 520 (≈ 190 µg/mL) | 25 | 2 | 4.5 | 134 | 37 | > 30 | 36 | 42 | > 30 | 0.369 | pKa (physchem [12]): 7.1
4 | O=C(O)c1ccc(CN2C[C@@H]3C[C@H]2CN3Cc2ccc(Oc3ccc(-c4ncco4)cc3)cc2)cc1 [ACEBILUSTAT] | – | – | – | – | – | – | – | – | – | – | – | – | – | – | – | IC50 [20]: 0.003 µM; IC50 [21]: 0.135 µM
5 | N[C@H](CO)Cc1nc(-c2ccc(Oc3ccc(-c4cc[nH]n4)cn3)cc2)no1 | 1.8 | 29 | < 25 | < 25 | 870 (≈ 329 µg/mL) | 9 | 23 | 23 | 16 | 49 | > 30 | 21 | 403 | > 30 | 4.2 | IC50 [22]: > 100 µM; concentration at 24 h (in vivo [4]; blood): 116 nM; concentration at 2 h (in vivo [7]; blood): 800 nM
6 | N[C@H](CO)Cn1nnc(-c2ccc(Oc3ncc(Cl)cc3F)cc2)n1 | 2.3 | < 25 | < 25 | < 25 | > 1000 | 28 | 52 | 5.3 | 9 | 100 | 30 | 3 | 1300 | > 30 | 14.7 | pKa (physchem [12]): 7.1; IC50 [22]: 28 µM; concentration at 24 h (in vivo [4]; blood): 134 nM; concentration at 2 h (in vivo [7]; blood): 2980 nM
7 | CC(=O)N[C@H]1C[C@H]2CC[C@@H](C1)N2Cc1ccc(Oc2nc3ncccc3s2)cc1 | – | – | – | – | – | – | – | – | – | – | – | – | – | – | – | IC50 [20]: 0.003 µM; IC50 [21]: 0.042 µM
8 | N[C@H](CCO)Cn1nnc(-c2ccc(Oc3ncc(Cl)cc3F)cc2)n1 | 2.4 | 145 | 94 | 40 | 580 (≈ 220 µg/mL) | 21 | – | – | – | – | – | – | – | > 30 | – | –
9 | Cc1ccc(Oc2ccc(-c3nnn(CCN)n3)cc2)cc1 | 3 | 246 | 266 | 396 | 30 (≈ 8.86 µg/mL) | 34 | – | – | – | – | – | – | – | 6 | – | –
